In US6979686B1, “Substituted pyrazoles as p38 kinase inhibitors” (Pharmacia Corporation, priority 2001, dated 2005):
Like-named read-outs stand apart in the source and are kept apart here.

Target: T1, human p38 kinase alpha (Homo sapiens, UniProt Q16539)
T1 construct: GST (N, cleaved yes); made in house; host or cells: E. coli DH10B
Assay: p38 kinase in vitro assay, phosphorylation of biotinylated PHAS-I with 32P-ATP
Type: biochemical

[1] = in vitro P38-alpha kinase inhibition, read-out: P38 alpha kinase IC50
[2] = in vitro P38-alpha kinase, read-out: P38 alpha kinase IC50
[3] = Table 8, 1% DMSO, read-out: p38α Kinase Assay IC50

T1 sequence (Q16539 whole entry): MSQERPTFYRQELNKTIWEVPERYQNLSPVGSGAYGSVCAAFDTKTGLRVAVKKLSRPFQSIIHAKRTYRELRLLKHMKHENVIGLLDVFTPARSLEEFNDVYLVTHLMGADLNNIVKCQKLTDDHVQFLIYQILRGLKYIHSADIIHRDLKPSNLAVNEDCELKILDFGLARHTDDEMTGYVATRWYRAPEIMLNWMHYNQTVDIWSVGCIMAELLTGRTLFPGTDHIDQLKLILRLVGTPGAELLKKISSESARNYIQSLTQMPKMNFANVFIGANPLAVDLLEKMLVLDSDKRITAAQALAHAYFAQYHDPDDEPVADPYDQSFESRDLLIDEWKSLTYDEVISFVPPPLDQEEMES

Work on `CCNC(=O)NC(Cc1ccccc1)c1[nH]nc(-c2ccc(F)cc2)c1-c1ccncc1` (stereo not shown) [Example B-0788] yielded an IC50 [1] of 1200 nM.
`CC(NS(=O)(=O)c1cc(Cl)ccc1Cl)c1[nH]nc(-c2ccc(F)cc2)c1-c1ccncc1` (stereo not shown) [Example B-0615] was tested, and the IC50 [1] was 80 nM.
With `CCS(=O)(=O)NCCc1[nH]nc(-c2ccc(F)cc2)c1-c1ccncc1` [Example B-1023] the “P38 alpha kinase % inhib @ conc. (uM)” value (@ 1.0 uM) was 93.0% @.
In the case of `CC(NC(=O)C1CCC1)c1[nH]nc(-c2ccc(F)cc2)c1-c1ccncc1` (stereo not shown) [Example B-0537], the IC50 [1] is reported as 3440 nM.
With `O=C(NCCCc1[nH]nc(-c2ccc(F)cc2)c1-c1ccncc1)C1CCCC1` [Example B-1181] the “P38 alpha kinase % inhib @ conc. (uM)” value (@ 1.0 uM) was 79.0% @.
For `N#Cc1ccccc1S(=O)(=O)N1CCC(c2[nH]nc(-c3ccc(F)cc3)c2-c2ccncc2)CC1` [Example B-1461], the IC50 [2] was 400 nM.
`O=S(=O)(c1cccc2nonc12)N1CCC(c2[nH]nc(-c3ccc(F)cc3)c2-c2ccncc2)CC1` [Example B-1436] showed an IC50 [2] of 1000 nM.
For `O=S(=O)(NCCCc1[nH]nc(-c2ccc(F)cc2)c1-c1ccncc1)c1ccc(F)cc1` [Example B-1190], the “P38 alpha kinase % inhib @ conc. (uM)” value (@ 1.0 uM) was 78.0% @.
In the case of `CN1CCN(Cc2n[nH]c(-c3ccc(F)cc3)c2-c2ccncc2)CC1` [A-313, Step 3, 1-[[5-(4-fluorophenyl)-4-(4-pyridinyl)-1H-pyrazol-3-yl]methyl]-4-methylpiperazine], the IC50 [3] is reported as 36 nM.
For `COCCNC(=O)NCCCc1[nH]nc(-c2ccc(F)cc2)c1-c1ccncc1` [Example B-1311], the IC50 [2] was 50 nM.
`Cc1c(-c2ccncc2)c(-c2ccc(F)cc2)nn1CC(=O)NCC(=O)c1ccccc1` [Example B-2317] gave an IC50 [2] of 1000 nM.
Molecule `CS(=O)(=O)N1CCN(c2n[nH]c(-c3ccc(Cl)cc3)c2-c2ccncc2)CC1` [Example A-320, 1-[5-(4-chlorophenyl)-4-(4-pyridinyl)-1H-pyrazol-3-yl]-4-(methylsulfonyl)piperazine, monohydrate] has an IC50 [3] of 270 nM.
In the case of `CN(C(=O)NCCCc1[nH]nc(-c2ccc(F)cc2)c1-c1ccncc1)c1ccccc1` [Example B-1214], the “P38 alpha kinase % inhib @ conc.” value (@ 1.0 uM) is reported as 76.0% @.
Molecule `O=C(NCCCc1[nH]nc(-c2ccc(F)cc2)c1-c1ccncc1)c1ccc(F)c(F)c1` [Example B-1330] has an IC50 [2] of 53 nM.
`O=C(O)c1ccccc1S(=O)(=O)NCCCc1[nH]nc(-c2ccc(F)cc2)c1-c1ccncc1` [Example B-1242] showed an IC50 [2] of 80 nM.
For `O=S(=O)(c1cc(Cl)ccc1Cl)N1CCC(c2[nH]nc(-c3ccc(F)cc3)c2-c2ccncc2)CC1` [Example B-1450], the IC50 [2] was 2100 nM.
`CCN(CC)CCN(CCN(CC)CC)C(=O)Cn1nc(-c2ccc(F)cc2)c(-c2ccncc2)c1C` [Example B-2407] was tested, and the “P38 alpha kinase IC50, uM or % inhib @ conc. (uM): % inhib” value (“P38 alpha kinase IC50 … % inhib” for short) (@ 100.0 uM) was 47% @.
Work on `C=CCOC(=O)NC(Cc1ccccc1)c1[nH]nc(-c2ccc(F)cc2)c1-c1ccncc1` (stereo not shown) [Example B-0833] yielded an IC50 [1] of 950 nM.
For `CC(C)(C)C(=O)NCCc1[nH]nc(-c2ccc(F)cc2)c1-c1ccncc1` [Example B-1052], the “P38 alpha kinase % inhib @ conc. (uM)” value (@ 1.0 uM) was 69.0% @.
`O=C(NCCCc1[nH]nc(-c2ccc(F)cc2)c1-c1ccncc1)c1ccccc1` [Example B-1180] was tested, and the “P38 alpha kinase % inhib @ conc. (uM)” value (@ 1.0 uM) was 78.0% @.
With `CC(NS(=O)(=O)c1ccccc1Cl)c1[nH]nc(-c2ccc(F)cc2)c1-c1ccncc1` (stereo not shown) [Example B-0640] the IC50 [1] was 360 nM.
`CC(Oc1ccccc1)C(=O)NC(Cc1ccccc1)c1[nH]nc(-c2ccc(F)cc2)c1-c1ccncc1` (stereo not shown) [Example B-0857] was tested, and the IC50 [1] was 6250 nM.
In the case of `COc1ccc(S(=O)(=O)NCCCc2[nH]nc(-c3ccc(F)cc3)c2-c2ccncc2)cc1OC` [Example B-1205], the “P38 alpha kinase % inhib @ conc.” value (@ 1.0 uM) is reported as 74.0% @.
`COC(=O)C(NC(=O)Cn1nc(-c2ccc(F)cc2)c(-c2ccncc2)c1C)C(C)C` (stereo not shown) [Example B-2365] was tested, and the “P38 alpha kinase % inhib @ conc.” value (@ 10.0 uM) was 82.0% @.
For `O=C(NCCCc1[nH]nc(-c2ccc(F)cc2)c1-c1ccncc1)Nc1ccccc1F` [Example B-1215], the “P38 alpha kinase % inhib @ conc.” value (@ 1.0 uM) was 86.0% @.
With `CC(NS(=O)(=O)c1ccc(Br)cc1)c1[nH]nc(-c2ccc(F)cc2)c1-c1ccncc1` (stereo not shown) [Example B-0609] the IC50 [1] was under 100 nM.
`O=S(=O)(NCCCc1[nH]nc(-c2ccc(F)cc2)c1-c1ccncc1)c1cccs1` [Example B-1203] was tested, and the “P38 alpha kinase % inhib @ conc.” value (@ 1.0 uM) was 84.0% @.
In the case of `O=S(=O)(NCCc1[nH]nc(-c2ccc(F)cc2)c1-c1ccncc1)c1cccs1` [Example B-1026], the “P38 alpha kinase % inhib @ conc. (uM)” value (@ 1.0 uM) is reported as 87.0% @.
For `Cc1c(-c2ccncc2)c(-c2ccc(F)cc2)nn1CC(=O)Nc1ccccc1Cl` [Example B-2422], the “P38 alpha kinase IC50 … % inhib” value (@ 10.0 uM) was 90.0% @.
`O=C(NCCCc1[nH]nc(-c2ccc(F)cc2)c1-c1ccncc1)c1ccccc1Br` [Example B-1355] showed an IC50 [2] of 70 nM.
For `COc1ccc(C)c(S(=O)(=O)N2CCC(c3[nH]nc(-c4ccc(F)cc4)c3-c3ccncc3)CC2)c1` [Example B-1447], the IC50 [2] was 500 nM.
Molecule `CC(NS(=O)(=O)c1cc(Cl)cc(Cl)c1)c1[nH]nc(-c2ccc(F)cc2)c1-c1ccncc1` (stereo not shown) [Example B-0641] has an IC50 [1] of 580 nM.
`O=S(=O)(NCCCc1[nH]nc(-c2ccc(F)cc2)c1-c1ccncc1)c1ccc(Cl)c(Cl)c1` [Example B-1270] gave an IC50 [2] of 470 nM.
For `CC(NC(=O)Nc1ccccc1O)c1[nH]nc(-c2ccc(F)cc2)c1-c1ccncc1` (stereo not shown) [Example B-0587], the IC50 [1] was 6840 nM.
Work on `CC(NC(=O)N(C)c1ccccc1)c1[nH]nc(-c2ccc(F)cc2)c1-c1ccncc1` (stereo not shown) [Example B-0586] yielded an IC50 [1] of 810 nM.
`O=S(=O)(NCCc1[nH]nc(-c2ccc(F)cc2)c1-c1ccncc1)c1cccc2nonc12` [Example B-1105] showed an IC50 [1] of under 100 nM.
With `O=C(NCCc1[nH]nc(-c2ccc(F)cc2)c1-c1ccncc1)c1ccccc1C(F)(F)F` [Example B-0996] the “P38 alpha kinase % inhib @ conc. (uM)” value (@ 1.0 uM) was 54.0% @.
`Cc1cccc(C)c1NC(=O)NC(Cc1ccccc1)c1[nH]nc(-c2ccc(F)cc2)c1-c1ccncc1` (stereo not shown) [Example B-0778] gave an IC50 [1] of 51000 nM.
For `CC(Oc1ccccc1)C(=O)NCCc1[nH]nc(-c2ccc(F)cc2)c1-c1ccncc1` (stereo not shown) [Example B-1009], the “P38 alpha kinase % inhib @ conc. (uM)” value (@ 1.0 uM) was 80.0% @.
Work on `CC(C)OC(=O)NC(Cc1ccccc1)c1[nH]nc(-c2ccc(F)cc2)c1-c1ccncc1` (stereo not shown) [Example B-0751] yielded an IC50 [1] of 1600 nM.
In the case of `O=C(NCCc1[nH]nc(-c2ccc(F)cc2)c1-c1ccncc1)c1cccc(F)c1F` [Example B-1146], the IC50 [1] is reported as 470 nM.
`CCOC(=O)CN(Cc1ccccn1)C(=O)Cn1nc(-c2ccc(F)cc2)c(-c2ccncc2)c1C` [Example B-2390] was tested, and the “P38 alpha kinase IC50 … % inhib” value (@ 10.0 uM) was 34.0% @.
`Cc1ccc(S(=O)(=O)NC(Cc2ccccc2)C(=O)NC(Cc2ccccc2)c2[nH]nc(-c3ccc(F)cc3)c2-c2ccncc2)cc1` (stereo not shown) [Example B-0827] gave an IC50 [1] of 15600 nM.
With `Cc1c(-c2ccncc2)c(-c2ccc(F)cc2)nn1CC(=O)NCCc1ccc(F)cc1` [Example B-2271] the IC50 [2] was 930 nM.
`COc1ccc2[nH]cc(CCNC(=O)Cn3nc(-c4ccc(F)cc4)c(-c4ccncc4)c3C)c2c1` [Example B-2296] gave an IC50 [2] of 17300 nM.
With `Cc1c(-c2ccncc2)c(-c2ccc(F)cc2)nn1CC(=O)NC1CCCc2ccccc21` (stereo not shown) [Example B-2326] the “P38 alpha kinase % inhib @ conc.” value (@ 10.0 uM) was 76.0% @.
`O=C(NCCCc1[nH]nc(-c2ccc(F)cc2)c1-c1ccncc1)NCc1ccccc1` [Example B-1208] was tested, and the “P38 alpha kinase % inhib @ conc.” value (@ 1.0 uM) was 82.0% @.
In the case of `CCOC(=O)c1ccc(NC(=O)NCCc2[nH]nc(-c3ccc(F)cc3)c2-c2ccncc2)cc1` [Example B-0949], the “P38 alpha kinase % inhib @ conc. (uM)” value (@ 1.0 uM) is reported as 90.0% @.
In the case of `CCN1CCN(C(=O)Cn2nc(-c3ccc(F)cc3)c(-c3ccncc3)c2C)CC1` [Example B-2368], the “P38 alpha kinase % inhib @ conc.” value (@ 10.0 uM) is reported as 65.0% @.
Work on `CC(C)c1cc(C(C)C)c(C(=O)NCCc2[nH]nc(-c3ccc(F)cc3)c2-c2ccncc2)c(C(C)C)c1` [Example B-1125] yielded an IC50 [1] of 560 nM.
With `COc1ccc(OC)c(NC(=O)Cn2nc(-c3ccc(F)cc3)c(-c3ccncc3)c2C)c1` [Example B-2431] the “P38 alpha kinase IC50 … % inhib” value (@ 10.0 uM) was 85.0% 2.
`O=C(NCCc1[nH]nc(-c2ccc(F)cc2)c1-c1ccncc1)c1cc(F)ccc1F` [Example B-1148] gave an IC50 [1] of 430 nM.
For `CCOCCCNC(=O)Cn1nc(-c2ccc(F)cc2)c(-c2ccncc2)c1C` [Example B-2273], the IC50 [2] was 1920 nM.
Work on `O=C(NCc1[nH]nc(-c2ccc(F)cc2)c1-c1ccncc1)c1ccc(Br)cc1` [Example B-0007] yielded an inhibition at 1 µM (@ 1.0 uM, read-out: P38 alpha kinase % inhib @ conc.) of 74%.
In the case of `CC(C)S(=O)(=O)NC(Cc1ccccc1)c1[nH]nc(-c2ccc(F)cc2)c1-c1ccncc1` (stereo not shown) [Example B-0709], the IC50 [1] is reported as 840 nM.
For `CCCCOc1ccc(S(=O)(=O)NC(C)c2[nH]nc(-c3ccc(F)cc3)c2-c2ccncc2)cc1` (stereo not shown) [Example B-0633], the IC50 [1] was 600 nM.
`Cc1ccc(S(=O)(=O)NC(Cc2ccccc2)c2[nH]nc(-c3ccc(F)cc3)c2-c2ccncc2)cc1` (stereo not shown) [Example B-0766] gave an IC50 [1] of 950 nM.
With `CCOC(=O)NCCCc1[nH]nc(-c2ccc(F)cc2)c1-c1ccncc1` [Example B-1231] the “P38 alpha kinase % inhib @ conc.” value (@ 1.0 uM) was 94.0% @.
In the case of `Clc1ccc(-c2[nH]nc(N3CCNCC3)c2-c2ccncc2)cc1` [Example A-328, 1-[5-(4-chlorophenyl)-4-(4-pyridinyl)-1H-pyrazol-3-yl]piperazine], the IC50 [3] is reported as 12 nM.
`Cc1ccc(S(C)(=O)=O)cc1S(=O)(=O)NC(C)c1[nH]nc(-c2ccc(F)cc2)c1-c1ccncc1` (stereo not shown) [Example B-0668] was tested, and the IC50 [1] was 270 nM.
`O=C(NC(Cc1ccccc1)c1[nH]nc(-c2ccc(F)cc2)c1-c1ccncc1)N1CCCC1` (stereo not shown) [Example B-0771] gave an IC50 [1] of 500 nM.
`O=S(=O)(c1ccc(-c2ccccn2)s1)N1CCC(c2[nH]nc(-c3ccc(F)cc3)c2-c2ccncc2)CC1` [Example B-1439] gave an IC50 [2] of 1700 nM.
`CC[C@H](C)[C@H](NC(=O)Cn1nc(-c2ccc(F)cc2)c(-c2ccncc2)c1C)C(=O)OC` [Example B-2353] was tested, and the “P38 alpha kinase % inhib @ conc.” value (@ 10.0 uM) was 38.0% @.
Molecule `O=S(=O)(NC(Cc1ccccc1)c1[nH]nc(-c2ccc(F)cc2)c1-c1ccncc1)c1ccccc1F` (stereo not shown) [Example B-0714] has an IC50 [1] of 3700 nM.
With `Cc1ccc(C)c(S(=O)(=O)NCCc2[nH]nc(-c3ccc(F)cc3)c2-c2ccncc2)c1` [Example B-1096] the IC50 [1] was under 100 nM.
`O=S(=O)(NCCc1[nH]nc(-c2ccc(F)cc2)c1-c1ccncc1)c1cccc2cccnc12` [Example B-1071] gave an IC50 [1] of under 100 nM.
With `Cc1c(-c2ccncc2)c(-c2ccc(F)cc2)nn1CC(=O)NC(Cc1ccccc1)c1ccccc1` (stereo not shown) [Example B-2320] the “P38 alpha kinase % inhib @ conc.” value (@ 10.0 uM) was 44.0% @.
